Measurements from PubChem BioAssay AID1963829 (Molecular Pharmacology Branch, DTP, NCI, 2024).

The compounds below were run on 935938-334-R-J1-PDC complex spheroid viability (assay: Anticancer human tumor 935938-334-R-J1-PDC patient-derived small intestine adenocarcinoma cell line growth inhibition [POLQ]). Settings: curve of first compound; second compound 0.0316 µM.
Method: Multicellular complex tumor spheroid response to Polymerase (POL) inhibitors (novobiocin, ART-558, RP6685) in combination with a variety of drugs and investigational agents in selected tumor cell lines
The POL inhibitors (novobiocin, ART-558, and RP6685) were evaluated both individually and in combination with standard of care and investigational anticancer small molecules within a complex spheroid model of solid tumors. . Complex spheroids include a stromal component modeled by human endothelial cells (HUVEC) and fibroblasts modeled by human mesenchymal stem cells (MSCs). The concentration ranges selected for each drug and investigational agent were based upon clinically achievable concentrations if the clinical Cmax of the agent was known.
Compounds. The drugs and investigational agents: novobiocin (NSC847541), ART-558 (NSC835418), RP-6685 (NSC848927), peposertib (NSC802822), ceralasertib (NSC780249), elimusertib (NSC800525), camonsertib (NSC841442), AZD-1390 (NSC803789), olaparib (NSC753686), talazoparib (NSC767125), rucaparib (NSC756644), sotorasib (NSC818433), MRTX-1133 (NSC836407), SN-38 (NSC673596), topotecan (NSC609699), epotoside (NSC141540), doxorubicin (NSC123127), gemcitabine (NSC613327), 5-fluorouracil (NSC19893), paclitaxel (NSC125973), vemurafenib (NSC761431), MSA-2 (NSC828583), SN-011 (NSC837082), adavosertib (NSC754352), prexasertib (NSC758257), carboplatin (NSC241240) and oxaliplatin (NSC266046), were obtained from the National Cancer Institute (NCI) Developmental Therapeutics Program Chemical Repository (21). The FDA-approved anticancer drug set is available from the Developmental Therapeutics Program at https://dtp.cancer.gov/organization/dscb/obtaining/. […] The stock solutions were prepared in dimethyl sulfoxide (DMSO, Sigma-Aldrich, St. Louis, MO, cat. D2650), except for the platinum compounds which were prepared in saline (Quality Biological, Gaithersburg, MD, cat. 114-055-101), at 800-fold the tested concentration and stored at -70 degrees C prior to their use. All drugs and investigational agents were tested over a range starting from a high concentration at or near the clinical Cmax and decreasing in half-log increments. If the clinical Cmax for an agent had not been determined, the highest concentration tested was 10 microM, except for SN-38, which was tested at a high concentration of 1 microM.
Cell Culture. All cells were maintained in an incubator at 37 degrees C and 5% CO2 with 95% humidity. The PDC lines were cultured according to standard operating procedures established by the NCI PDMR (https://pdmr.cancer.gov). Table 3 of the manuscript, lists the cell lines along with the number of the three cell types plated to form the mct-spheroids and media for tumor cell growth. After thawing, all PDC lines, except 997537-175-T-J1-PDC and 415267-285-R-J2-PDC, were cultured in Matrigel-coated flasks prepared with a working solution of 1X Ham's F-12 nutrient mix, without supplementation (Thermo Fisher Scientific, cat. 11765054), 100 U/mL penicillin-streptomycin (Thermo Fisher Scientific, cat. 15140122), and 2.5% Matrigel (Corning Inc., Corning, NY, cat. 354248) for the first three passages. The two PDC lines 997537-175-T-J1-PDC and 415267-285-R-J2-PDC were cultured on uncoated flasks. The 857933-349-R-J2-PDC line was cultured in 6C/Colon 1B media containing advanced DMEM/F-12 (Thermo Fisher Scientific, cat. 12634028), 10 mM HEPES (Thermo Fisher Scientific, cat. 15630080), 1X GlutaMAX supplement (Thermo Fisher Scientific, cat. 35050061), 0.1 mg/mL primocin (InvivoGen, San Diego, CA, cat. ant-pm-2), 10% defined fetal bovine serum, heat inactivated (HyClone Laboratories Inc., Logan, UT, cat. SH30070.03HI), 50% L-WRN conditioned media (ATCC, cat. CRL-3276), 1.25 mM N-Acetyl-L-cysteine (Sigma-Aldrich, cat. A9165), 10 mM nicotinamide (Sigma-Aldrich, cat. N0636), 1X B-27 supplement (Thermo Fisher Scientific, cat. 17504044), 1X N-2 supplement (Thermo Fisher Scientific, cat. […]
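Further: spheroids exposed to drugs for seven days before viability read.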

Question: Which IC50 does the source give for `O=c1[nH]cc(F)c(=O)[nH]1` + COC1C(OC(N)=O)C(O)C(Oc2ccc3c(O)c(NC(=O)c4ccc(O)c(CC=C(C)C)c4)c(=O)oc3c2C)OC1(C)C here?
Answer: > 10 µM

Question: How did the IC50 turn out when `COc1cc2cc(C(=O)CCC(=O)O)sc2cc1OC` + Nc1ccc(C#CCN(C(=O)Cc2ncc(C(F)(F)F)cc2C(F)(F)F)c2ccc(F)cc2)nn1 was run?
Answer: > 10 µM

Question: How did the IC50 turn out when `C#Cc1c(F)ccc2cc(O)cc(-c3ncc4c(N5CC6CCC(C5)N6)nc(OCC56CCCN5CC(F)C6)nc4c3F)c12` (stereo not drawn) + Cc1cccc(N(C)C(=O)C2C(O)CCN2c2nc(C)cc(C(F)(F)F)c2C#N)c1 was run?
Answer: 2.41 µM

Same assay, conditions: curve of first compound; second compound 0.1 µM

Question: How did the IC50 turn out when `CCc1c2c(nc3ccc(O)cc13)-c1cc3c(c(=O)n1C2)COC(=O)[C@]3(O)CC` + Cc1cccc(N(C)C(=O)C2C(O)CCN2c2nc(C)cc(C(F)(F)F)c2C#N)c1 was run?
Answer: 0.0199 µM

Question: With `O=c1[nH]cc(F)c(=O)[nH]1` + COC1C(OC(N)=O)C(O)C(Oc2ccc3c(O)c(NC(=O)c4ccc(O)c(CC=C(C)C)c4)c(=O)oc3c2C)OC1(C)C as the compound, how does the IC50 read?
Answer: > 10 µM

Question: How did the IC50 turn out when `COc1cc2cc(C(=O)CCC(=O)O)sc2cc1OC` + Nc1ccc(C#CCN(C(=O)Cc2ncc(C(F)(F)F)cc2C(F)(F)F)c2ccc(F)cc2)nn1 was run?
Answer: > 10 µM

Question: Which IC50 does the source give for `C#Cc1c(F)ccc2cc(O)cc(-c3ncc4c(N5CC6CCC(C5)N6)nc(OCC56CCCN5CC(F)C6)nc4c3F)c12` (stereo not drawn) + Cc1cccc(N(C)C(=O)C2C(O)CCN2c2nc(C)cc(C(F)(F)F)c2C#N)c1 here?
Answer: 3.39 µM

Same assay, conditions: curve of first compound; second compound 0.316 µM

Question: For `CCc1c2c(nc3ccc(O)cc13)-c1cc3c(c(=O)n1C2)COC(=O)[C@]3(O)CC` + Cc1cccc(N(C)C(=O)C2C(O)CCN2c2nc(C)cc(C(F)(F)F)c2C#N)c1, which IC50 is on record?
Answer: 0.0245 µM

Question: `O=c1[nH]cc(F)c(=O)[nH]1` + COC1C(OC(N)=O)C(O)C(Oc2ccc3c(O)c(NC(=O)c4ccc(O)c(CC=C(C)C)c4)c(=O)oc3c2C)OC1(C)C was tested. Which IC50 did it give?
Answer: 4.82 µM

Question: With `COc1cc2cc(C(=O)CCC(=O)O)sc2cc1OC` + Nc1ccc(C#CCN(C(=O)Cc2ncc(C(F)(F)F)cc2C(F)(F)F)c2ccc(F)cc2)nn1 as the compound, how does the IC50 read?
Answer: > 10 µM

Question: `C#Cc1c(F)ccc2cc(O)cc(-c3ncc4c(N5CC6CCC(C5)N6)nc(OCC56CCCN5CC(F)C6)nc4c3F)c12` (stereo not drawn) + Cc1cccc(N(C)C(=O)C2C(O)CCN2c2nc(C)cc(C(F)(F)F)c2C#N)c1 was tested. Which IC50 did it give?
Answer: 1.49 µM

Same assay, conditions: curve of first compound; second compound 1 µM

Question: `CCc1c2c(nc3ccc(O)cc13)-c1cc3c(c(=O)n1C2)COC(=O)[C@]3(O)CC` + Cc1cccc(N(C)C(=O)C2C(O)CCN2c2nc(C)cc(C(F)(F)F)c2C#N)c1 was tested. Which IC50 did it give?
Answer: 0.0227 µM

Question: `O=c1[nH]cc(F)c(=O)[nH]1` + COC1C(OC(N)=O)C(O)C(Oc2ccc3c(O)c(NC(=O)c4ccc(O)c(CC=C(C)C)c4)c(=O)oc3c2C)OC1(C)C was tested. Which IC50 did it give?
Answer: > 10 µM

Question: For `COc1cc2cc(C(=O)CCC(=O)O)sc2cc1OC` + Nc1ccc(C#CCN(C(=O)Cc2ncc(C(F)(F)F)cc2C(F)(F)F)c2ccc(F)cc2)nn1, which IC50 is on record?
Answer: > 10 µM

Question: For `C#Cc1c(F)ccc2cc(O)cc(-c3ncc4c(N5CC6CCC(C5)N6)nc(OCC56CCCN5CC(F)C6)nc4c3F)c12` (stereo not drawn) + Cc1cccc(N(C)C(=O)C2C(O)CCN2c2nc(C)cc(C(F)(F)F)c2C#N)c1, which IC50 is on record?
Answer: 1.73 µM

Same assay, conditions: curve of first compound; second compound 3.16 µM

Question: `CCc1c2c(nc3ccc(O)cc13)-c1cc3c(c(=O)n1C2)COC(=O)[C@]3(O)CC` + Cc1cccc(N(C)C(=O)C2C(O)CCN2c2nc(C)cc(C(F)(F)F)c2C#N)c1 was tested. Which IC50 did it give?
Answer: 0.0243 µM

Question: For `O=c1[nH]cc(F)c(=O)[nH]1` + COC1C(OC(N)=O)C(O)C(Oc2ccc3c(O)c(NC(=O)c4ccc(O)c(CC=C(C)C)c4)c(=O)oc3c2C)OC1(C)C, which IC50 is on record?
Answer: 8.13 µM

Question: Which IC50 does the source give for `COc1cc2cc(C(=O)CCC(=O)O)sc2cc1OC` + Nc1ccc(C#CCN(C(=O)Cc2ncc(C(F)(F)F)cc2C(F)(F)F)c2ccc(F)cc2)nn1 here?
Answer: > 10 µM

Question: For `C#Cc1c(F)ccc2cc(O)cc(-c3ncc4c(N5CC6CCC(C5)N6)nc(OCC56CCCN5CC(F)C6)nc4c3F)c12` (stereo not drawn) + Cc1cccc(N(C)C(=O)C2C(O)CCN2c2nc(C)cc(C(F)(F)F)c2C#N)c1, which IC50 is on record?
Answer: 2.02 µM

Same assay, conditions: curve of first compound; second compound 10 µM

Question: Which IC50 does the source give for `CCc1c2c(nc3ccc(O)cc13)-c1cc3c(c(=O)n1C2)COC(=O)[C@]3(O)CC` + Cc1cccc(N(C)C(=O)C2C(O)CCN2c2nc(C)cc(C(F)(F)F)c2C#N)c1 here?
Answer: 0.0261 µM

Question: For `O=c1[nH]cc(F)c(=O)[nH]1` + COC1C(OC(N)=O)C(O)C(Oc2ccc3c(O)c(NC(=O)c4ccc(O)c(CC=C(C)C)c4)c(=O)oc3c2C)OC1(C)C, which IC50 is on record?
Answer: > 10 µM

Question: `COc1cc2cc(C(=O)CCC(=O)O)sc2cc1OC` + Nc1ccc(C#CCN(C(=O)Cc2ncc(C(F)(F)F)cc2C(F)(F)F)c2ccc(F)cc2)nn1 was tested. Which IC50 did it give?
Answer: > 10 µM

Question: Which IC50 does the source give for `C#Cc1c(F)ccc2cc(O)cc(-c3ncc4c(N5CC6CCC(C5)N6)nc(OCC56CCCN5CC(F)C6)nc4c3F)c12` (stereo not drawn) + Cc1cccc(N(C)C(=O)C2C(O)CCN2c2nc(C)cc(C(F)(F)F)c2C#N)c1 here?
Answer: 0.576 µM
